Reference: patent US4281121A, “1,3,4-Thiadiazole-2-carboxylic acid derivatives, process for making the same and fungicidal and nematocidal compositions containing same” (Schering Aktiengesellschaft, priority 1978, dated 1981)
Like-named read-outs stand apart in the source and are kept apart here.

Columns and labels:
Tilletia caries [1] = test: Treatment of oat seeds infested with Tilletia caries (spore germination); assay type: in vivo
Helminthosporium gram = details: about 5 weeks
Experimental: Treatment of barley seeds infested with Helminthosporium gram
After emergence, the plants were subjected to illumination for 12 hours per day. After about 5 weeks the infested plants were counted and the total number of plants for each test were also counted. The active agents tested were used as pulverulent compositions.

Pythium ultimum = test: Threshold concentration test for use of the compounds against Pythium ultimum (infested soil, garden peas); assay type: in vivo; design: key to root evaluation (1-4): 4: white roots without fungous necrosis; 3: white roots, minor fungous necrosis; 2: brown roots, already more pronounced fungous necrosis; 1: heavy fungous necrosis, roots rotted; details: for root evaluation (1-4): 3 weeks; for number of sound peas: 20 grains per dish, 3 weeks at 20-24° C.
Outline: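 Garden pea seeds, 20 per dish, went straight into Pythium ultimum-infested soil into which 20% pulverulent formulations had been uniformly blended. Sound plants counted and roots rated 1–4 after three weeks of hothouse growth at 20–24 °C.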

Fusarium nivale = test: Treatment of rye seeds against Fusarium nivale; assay type: in vivo; details: 100 g/100 kg; about 4 weeks
Experimental: Treatment of rye seeds against Fusarium nivale
Rye seeds with a natural infestation by Fusarium nivale were seeded in earth filled pots and left for germination at about 6° C. Part of the seeds was treated before seeding with the active agents as appears from the subsequent table and part was untreated. After emergence of the seedlings the plants were illuminated with artificial light for 12 hours each day. After about 4 weeks the degree of infestation was determined in percentages. The fungicidal activity was calculated on the basis of the following formula: [formula]
The active agents were used in the form of 20% concentration compositions.

Tilletia caries [2] = test: Seed treatment in open field tests regarding infestation by Tilletia caries (oats); assay type: in vivo; details: summer oats, about 4 months
Fusarium avenaceum [3] = test: Threshold concentration test in case of Fusarium avenaceum (infested soil, garden peas); assay type: in vivo; details: for number of sound peas: 20 grains per dish, 18 days at 20-24° C.; for root evaluation (1-4): 18 days
Outline: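 Soil heavily infested with Fusarium avenaceum was mixed uniformly with a 20% powder formulation of active agent, then sown immediately with 20 garden pea seeds ('Wunder von Kelvedon') per dish. After 18 days in a greenhouse at 20° to 24° C., sound plants were counted and roots scored on a 1–4 scale.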

Alternaria solani = test: Inhibition of fungus in a nutrient solution: Alternaria solani; assay type: cell-based; details: 6 days at 21-23° C.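 Also: 0 means no fungus growth and higher grades mean more surface covered.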
Fusarium avenaceum [4] = test: Inhibition of fungus in a nutrient solution: Fusarium avenaceum; assay type: cell-based; details: 6 days at 21-23° C.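 Also: 0 means no fungus growth and higher grades mean more surface covered.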
Experimental: Inhibition of fungus in a nutrient solution
20 ml of a nutrient solution of grape juice and water (1:1) were filled into a glass vial of a 100 ml capacity and were mixed with the pulverulent active agents which appear from the subsequent table. Thereafter, the solution was inoculated with conidia (spores) of the test fungi.
After an incubation time of 6 days at 21° to 23° C. the fungus development on the surface of the nutrient solution was evaluated. The test fungi used were the following: Penicillium digitatum, Botrytis cinerea, Alternaria solani, Fusarium avenaceum.
The evaluation was carried out at a scale from 0 to 5 as follows: […]

Penicillium digitatum = test: Inhibition of fungus in a nutrient solution: Penicillium digitatum; assay type: cell-based; details: 6 days at 21-23° C.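 Also: 0 means no fungus growth and higher grades mean more surface covered.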
Botrytis cinerea = test: Inhibition of fungus in a nutrient solution: Botrytis cinerea; assay type: cell-based; details: 6 days at 21-23° C.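 Also: 0 means no fungus growth and higher grades mean more surface covered.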
[5] = system: root gall nematodes (Meloidogyne sp.); test: Threshold concentration test with root gall nematodes (cucumber, infested soil); assay type: in vivo; details: 28 days at 24-27° C.
From the text: Threshold concentration test with root gall nematodes (Meloidogyne sp.)
20% concentration pulverulent active agents as listed in the table below were mixed in a uniform manner with a soil which had been heavily infested by root gall nematodes. After waiting for 3 days the treated soil was placed in two clay dishes of a capacity of 0.5 liter. 10 grain of cucumber seeds of the type "Guntruud" were placed into each dish.
Thereafter, the contents of the dishes were permitted to develop at a temperature of 24° to 27° C. for a time of 28 days in a hothouse. The cucumber roots were then washed out and were examined in a water bath regarding nematode infestation. The reduction of the infestation by the active agents as compared with untreated control material was determined in percentages.
The nematocidal activity was calculated by the formula
A=the infestation in the untreated control material and
B=the infestation after treatment.

Septoria nodorum = test: Treatment of oat seeds against Septoria nodorum; assay type: in vivo; details: 50 g active agent/100 kg seeds; 4 weeks
Experimental: Effects of the treatment of oat seeds against Septoria nodorum
They were then seeded on a moist substrate for germination. As a control untreated seeds were likewise seeded. At about 6° C. the seed was incubated in an air-conditioned chamber until after 4 weeks the proportion of diseased seeds could be determined and the activity of the fungicidal compounds was calculated on the basis of the following formula: [formula]
The active agents were applied in the form of 20% concentration pulverulent compositions.

[6] = system: Helminthosporium gramineum; test: Seed treatment in open field tests for infestation by Helminthosporium gramineum (barley); assay type: in vivo
Experimental: Seed treatment in open field tests for infestation by Helminthosporium gramineum
The active agents were used in the form of pulverulent compositions. After about 8 months in case of winter barley and after about 3 months in case of summer barley the infested plants were counted and the activity was calculated by the formula [formula]

Piricularia oryzae = assay type: in vivo; details: concentration of active agent 0.1 (percentages); 5 days
Plasmopara viticola = test: Prophylactic leaf treatment of grapevines in the hothouse against Plasmopara viticola; assay type: in vivo
Outline: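 Activity derived from average percentage of leaf surface infested per treatment. Plants with 5–8 leaves received preventive spray (20% spray powder formulation), then undersides inoculated with ~20,000 sporangia/ml; held at 22–24 °C with full humidity, reduced to 30–70% for 3–4 days, then saturated one day.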

[7] = summer barley, 50 g active agent/100 kg barley, about 3 months
[8] = summer barley, 100 g active agent/100 kg barley, about 3 months
[9] = winter barley, 50 g active agent/100 kg barley, about 8 months
[10] = winter barley, 100 g active agent/100 kg barley, about 8 months

Row | Compound | % activity (Tilletia caries [1]; 10 g active agent per 100 kg) [%] | % activity (Tilletia caries [1]; 20 g active agent per 100 kg) [%] | % activity (Helminthosporium gram; 10 g active agent per 100 kg) [%] | % activity (Helminthosporium gram; 20 g active agent per 100 kg) [%] | % activity (Helminthosporium gram; 50 g active agent per 100 kg) [%] | root evaluation (1-4) (Pythium ultimum; 20 mg/l soil) | number of sound peas (Pythium ultimum; 20 mg/l soil) | root evaluation (1-4) (Pythium ultimum; 40 mg/l soil) | number of sound peas (Pythium ultimum; 40 mg/l soil) | root evaluation (1-4) (Pythium ultimum; 80 mg/l soil) | number of sound peas (Pythium ultimum; 80 mg/l soil) | % activity (Fusarium nivale) [%] | % activity (Tilletia caries [1]; 50 g active agent per 100 kg) [%] | % activity (Septoria nodorum) [%] | % activity [6, 7] [%] | % activity [6, 8] [%] | % activity [6, 9] [%] | % activity [6, 10] [%] | other results
1 | CC[S+]([O-])c1nnc(C(N)=O)s1 (stereo not shown) [5-ethylsulfinyl-1,3,4-thiadiazole-2-carboxamide] | 96 | 100 | 99 | 100 | 100 | 2 | 15 | 4 | 20 | 4 | 20 | 93 |  |  |  |  |  |  | % activity (Tilletia caries [1]; 5 g active agent per 100 kg): 78%; % activity (Tilletia caries [2]; 25 g active agent/100 kg): 100%; % activity (Tilletia caries [2]; 50 g active agent/100 kg): 100%
2 | CCS(=O)(=O)c1nnc(C#N)s1 [5-ethylsulfonyl-1,3,4-thiadiazole-2-carbonitrile] |  |  |  |  |  | 2 | 19 | 4 | 20 | 4 | 20 | 92 |  |  |  |  |  |  | number of sound peas (Fusarium avenaceum [3]; 25 mg/l soil): 18; root evaluation (1-4) (Fusarium avenaceum [3]; 25 mg/l soil): 4; number of sound peas (Fusarium avenaceum [3]; 50 mg/l soil): 20; root evaluation (1-4) (Fusarium avenaceum [3]; 50 mg/l soil): 4; number of sound peas (Fusarium avenaceum [3]; 100 mg/l soil): 20; root evaluation (1-4) (Fusarium avenaceum [3]; 100 mg/l soil): 4; fungus development on the surface of the nutrient solution (0-5) (Alternaria solani; 0.002%): 0; fungus development on the surface of the nutrient solution (0-5) (Alternaria solani; 0.004%): 0; fungus development on the surface of the nutrient solution (0-5) (Fusarium avenaceum [4]; 0.002%): 0; fungus development on the surface of the nutrient solution (0-5) (Fusarium avenaceum [4]; 0.004%): 0; fungus development on the surface of the nutrient solution (0-5) (Penicillium digitatum; 0.002%): 0; fungus development on the surface of the nutrient solution (0-5) (Penicillium digitatum; 0.004%): 0; fungus development on the surface of the nutrient solution (0-5) (Botrytis cinerea; 0.002%): 1; fungus development on the surface of the nutrient solution (0-5) (Botrytis cinerea; 0.004%): 0
3 | CSc1nnc(C#N)s1 [5-methylthio-1,3,4-thiadiazole-2-carbonitrile] |  |  |  |  |  |  |  |  |  |  |  |  |  |  |  |  |  |  | Percentage reduction of infestation ([5]; 50 mg per liter soil): 95%; Percentage reduction of infestation ([5]; 100 mg per liter soil): 99%; Percentage reduction of infestation ([5]; 200 mg per liter soil): 100%
4 | CCS(=O)(=O)c1nnc(C(=O)N(C)C)s1 [5-ethylsulfonyl-1,3,4-thiadiazole-2-carboxylic acid-dimethylamide] | 100 | 100 |  | 94 | 100 | 4 | 13 | 4 | 13 | 4 | 15 | 100 | 100 | 86 | 99.5 | 100 | 99.5 | 100 | % activity (Piricularia oryzae): 90%
5 | C=CCNC(=O)c1nnc(S(=O)(=O)CC)s1 [5-ethylsulfonyl-1,3,4-thiadiazole-2-carboxylic acid-allylamide] | 100 | 100 | 100 | 100 | 100 | 1 | 11 | 4 | 17 | 4 | 16 | 94 | 100 | 72 | 100 | 100 |  |  | % activity ([6]; summer barley, 25 g active agent/100 kg barley, about 3 months): 97%; % activity (Plasmopara viticola; concentration of active agent 0.001 (unit not given)): 98%; % activity (Plasmopara viticola; concentration of active agent 0.005 (unit not given)): 96%; % activity (Plasmopara viticola; concentration of active agent 0.025 (unit not given)): 99.4%
6 | CCS(=O)(=O)c1nnc(C(=O)NC)s1 [5-ethylsulfonyl-1,3,4-thiadiazole-2-carboxylic acid-methylamide] | 100 | 100 |  | 91 | 97 | 4 | 17 | 4 | 15 | 4 | 19 | 100 | 100 | 72 | 100 | 100 | 100 | 100 | 
